The values that follow come from patent US20190336496A1, “SELECTIVE BCL-2 INHIBITORS IN COMBINATION WITH AN ANTI-PD-1 OR AN ANTI-PD-L1 ANTIBODY FOR THE TREATMENT OF CANCERS” (AbbVie Inc., priority 2018, published 2019).

One experiment relates to mouse lymphocytes. Nature of the experiment: In vivo sensitivity of lymphocytes (flow cytometry). The procedure: FIG. 2: In vivo sensitivity of lymphocytes to Compound (I). […] Descriptions of each sub-section are as follows: (A) In vivo sensitivity of lymphocytes following one week of treatment with Compound (I). Naïve CB6F1 mice were treated daily with Compound (I) (50/mg/kg) for one week. Lymph nodes were collected, and immune cells were quantified by flow cytometry; (B) In vivo sensitivity of splenocytes following one week of treatment with Compound (I). Naïve C57BL/6 mice were treated daily with Compound (I) (50/mg/kg) for one week. Spleens were collected and immune cells were quantified by flow cytometry. Mouse splenocytes, including B-cells, CD8+ T-cells, and CD4+ T-cells, were sensitive to in vivo treatment with Compound (I), as described in Example 1; (C) In vivo sensitivity of T-cell subsets in splenocytes following one week of treatment with Compound (I). CD4+ naïve T-cells (TN) and CD8+ central memory T-cells in the spleen from C57BL/6 mice were slightly sensitive to in vivo Compound (I) treatment while the proportion of CD4+ and CD8+ effector memory T-cells (TEM) was increasing; and (D) In vivo sensitivity of T-cell subsets in the blood following one week of treatment with Compound (I). The proportion of CD4+ and CD8+ effector memory T cells (TEM) increased in the blood from C57BL/6 mice following in vivo Compound (I) treatment.
Cancer Immunol Res. 5; 29-41 (2017)). Any reduction in checkpoint inhibitor-mediated tumor growth inhibition or response rates caused by the addition of venetoclax would indicate potential antagonism. The panel was composed of syngeneic models of solid tumors: CT26, MC38 (both colorectal carcinoma) and EMT6 (breast cancer). […] Likewise, only modest anti-tumor activity could be observed in these models with venetoclax alone, dosed daily at 50 mg/kg for 14 days (FIG. 3, FIG. 6, FIGS. 12A, 12B, 12C, and 12D). […] Rather, it enhanced their efficacy in certain cases.
Background: A flow cytometer gives signals particle by particle.

The next experiment relates to mouse splenocytes. The experiment is described as follows: In vitro sensitivity of mouse splenocytes. The experiment is classed as cell-based. Particulars: BALB/c and C57BL/6 splenocytes, 24 hours. The procedure: Mouse splenocytes were plated at a density of 5×10^5 cells per well in a 48-well plate with 30 U/mL IL-2. Cells were cultured for 24 hours and then increasing concentrations of venetoclax were added for an additional 24 hours (DMSO was used as control). Cells were harvested, stained and subjected to flow cytometry analysis with an LSRFortessa™ X-20 instrument (BD Biosciences).
To further explore the mechanism for immune modulation in mice, splenocytes from BALB/c and C57BL/6 mice were treated in vitro with venetoclax for 24 hours. The two types of memory T-cells in mice are central memory (TCM; […]) and effector memory T-cells (TEM; […]). While naïve T-cells (CD62L^+CD44^−) were sensitive to venetoclax, effector memory T-cells were not and, importantly, their proportion increased relative to surviving T-cells with increased concentrations of venetoclax. Central memory T-cells were not affected by venetoclax under these experimental conditions (FIG. 9).

Experiment [1] relates to CD4 T-cells co-cultured with MoDCs. The experiment is described as follows: Mixed lymphocyte reaction (MLR) assay. The experiment is classed as cell-based, human. Here is the method:
Mixed Lymphocyte Reaction (MLR) assay was used to examine venetoclax effect on T-cell function in response to immune stimulation. Monocytic-derived dendritic cells (MoDCs) were generated from fresh human blood. PBMCs were isolated using a Ficoll gradient. The PBMCs were allowed to adhere for 2 hours. After 2 hours, cells in suspension were removed. Fresh AIM V™ medium (ThermoFisher cat. #12055091) supplemented with granulocyte-macrophage colony-stimulating factor (GM-CSF, 80 ng/mL) and IL-4 (50 ng/mL) was added to the culture. After 5 days, the MoDCs were stimulated with IL-1α and TNF-α (0.2 ng/mL each) for 48 hours to increase major histocompatibility complex class II molecules (MHCII) expression. These activated MoDCs were then co-cultured with CD4 T-cells (Biospecialty Corp.) at a ratio of 10:1 (T-cells:MoDCs) in a mixed lymphocyte reaction (MLR). The cells were treated with control IgG (Isotype) or anti-PD-1 antibody (nivolumab or ABBV-181 along with either dimethyl sulfoxide (DMSO) or BCL-2 inhibitors venetoclax (Compound (I)) or Compounds (II) or (III). Antibodies were added at 10 μg/mL and the compound concentrations of venetoclax were as indicated in FIG. 11. The MLR was cultured for 5 days, after which the cells were analyzed by flow cytometry using an LSRFortessa™ X-20 instrument (BD Biosciences) to determine cell number and functional cytokine (IFNγ) responses.

Another experiment has as its system NCI-H211. Nature of the experiment: Venetoclax cell killing (CellTiter-Glo). The experiment is classed as cell-based, human. Here is the method:
Solid tumor cell lines were obtained from American Type Culture Collection (ATCC, Manassas, Va.) or the National Cancer Institute (NCI) and cultured in humidified incubators at 37° C. (5% CO2) in appropriate media (specified by supplier) supplemented with 10% fetal bovine serum (FBS) or 10% human serum (HS). 24 hours after plating into 96-well or 384-well tissue culture plates, venetoclax was added to cells at various concentrations (typically 0.010 to 10 μM in half-log increments) to perform concentration-response assessments of cell killing. After 1 to 5 days of culture in the presence of venetoclax, cell viability was assessed using CellTiter-Glo® reagent (Promega). IC50 values were determined by non-linear regression analysis of the concentration response data (Table 5 and Table 6).

pIC50: −log10 of the molar value.

Regarding `CC1(C)CCC(CN2CCN(c3ccc(C(=O)NS(=O)(=O)c4ccc(NCC5CCOCC5)c([N+](=O)[O-])c4)c(Oc4cnc5[nH]ccc5c4)c3)CC2)=C(c2ccc(Cl)cc2)C1` [Compound (I), venetoclax], in the experiment on mouse lymphocytes (daily 50/mg/kg for one week, flow cytometry), the “sensitivity of lymphocytes in lymph node, spleen and blood (B-cells, CD8+ T-cells, CD4+ T-cells)” value is “sensitive”. Also, the “murine T-cell populations in vivo” value in the experiment with mouse lymphocytes (mice treated daily at 50 mg/kg for one week) is on record as “clear reductions”. The “proportion of memory cells, specifically effector memory cells” value with mouse lymphocytes (spleen and blood of C57BL/6 mice, one week of treatment) is on record as “increase”. In the experiment with mouse splenocytes, the “central memory T-cells” value is “not affected” and the “sensitivity of naïve T-cells” value is recorded as “sensitive”. The “proportion of effector memory T-cells relative to surviving T-cells” value in the experiment with mouse splenocytes (increased concentrations) is “increased”. In addition, the “IFNγ detected in the supernatant” value in experiment [1] (MLR 5 days) is reported as “same amount”. Moreover, the “proportion of CD4+ T-cells that produce IFNγ” value in experiment [1] (MLR 5 days, with isotype control or anti-PD-1 antibody) is listed as “increase”. The “number of CD4+ T-cells” value in experiment [1] (MLR cultured 5 days, antibodies at 10 μg/mL) is “reduced”. Besides, in experiment [1] (MLR, BCL-2 inhibitors at 1 μM), the “CD3+ T cell numbers” value is recorded as “declined comparably”, the “production of IFNγ (secreted)” value is reported as “not antagonized” and the “proportion of CD3+ T-cells that produce IFNγ” value is “increase”. The pIC50 in the experiment with NCI-H211 (Homo sapiens, NCI-H211, 48 h, Lung, 10% HS, 2 days) is 7.52. Moreover, the “sensitivity at clinically relevant concentrations” value in the experiment on NCI-H211 (only line of Tables 5 and 6) is reported as “showed sensitivity”.

Broadly, the pIC50 is −log10 of the IC50, conventionally taken in molar units.
